Patent US4657898A, “N^6 -substituted adenosines and method of use” (Warner-Lambert Company, priority 1985, dated 1987)
pIC50: −log10 of the molar value.

Tests used:
adenosine A2 receptor = target: T1, adenosine A2 receptor (Rattus norvegicus, UniProt P30543); test: Adenosine Receptor Binding--A2 Receptor Affinity (RBA2), [3H]NECA; design: species or system rat (Sprague-Dawley or Long-Evans, striatum)
T1 construct: 5 mg original tissue weight of rat weight of rat striatal membranes; tissue Pel-Freez (Rogers, Ark.); host or cells: rat striatum, membranes (Sprague-Dawley; Long-Evans from Blue Spruce Farms gave essentially identical results)
T1 sequence (P30543 whole entry): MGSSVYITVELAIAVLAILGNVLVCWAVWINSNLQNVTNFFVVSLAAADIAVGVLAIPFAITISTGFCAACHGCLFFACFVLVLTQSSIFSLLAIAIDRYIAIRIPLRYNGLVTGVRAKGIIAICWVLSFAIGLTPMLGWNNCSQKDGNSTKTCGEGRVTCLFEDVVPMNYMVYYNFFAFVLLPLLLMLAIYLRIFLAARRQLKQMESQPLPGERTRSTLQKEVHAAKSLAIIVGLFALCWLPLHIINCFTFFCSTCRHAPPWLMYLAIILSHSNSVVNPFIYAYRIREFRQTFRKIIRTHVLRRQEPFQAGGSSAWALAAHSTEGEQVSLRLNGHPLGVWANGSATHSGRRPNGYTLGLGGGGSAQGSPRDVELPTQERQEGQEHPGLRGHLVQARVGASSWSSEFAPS
Description: Adenosine Receptor Binding--A2 Receptor Affinity (RBA2)
Brains from 200-500 g mixed sex Sprague-Dawley rats were purchased from Pel-Freez (Rogers, Ark.). […] Brains were thawed and then kept on ice while the striata were dissected out. Striata were disrupted in 10 vol of ice-cold 50 mM Tris.HCl (pH 7.7 at 25° C., pH 8.26 at 5° C.) (Tris) for 30 seconds in a Polytron PT-10 (Brinkmann) at setting 5. The suspension was centrifuged at 50,000 xg for ten minutes, the supernatant discarded, the pellet resuspended in 10 vol ice-cold Tris as above, recentrifuged, resuspended at 1 g/5 ml, and stored in plastic vials at -70° C. […] When needed, tissue was thawed at room temperature, disrupted in a Polytron, and kept on ice until used. […]
Incubations were terminated by filtration through 2.4 cm GF/B filters under reduced pressure. […] Filters were put in scintillation vials, 8 ml of Formula 947 scintillation fluid added, and the vials left overnight, shaken, and counted in a liquid scintillation counter at 40% efficiency.
The IC50 was calculated by weighted nonlinear least squares curve-fitting to the mass-action equation. […]
Weighting factors were calculated under the assumption that the standard deviation was proportional to the predicted value of Y. Nonspecific binding was treated as a very large (infinite) concentration of drug in the computer analysis.

adenosine A1 receptor = target: T2, adenosine A1 receptor (Rattus norvegicus, UniProt P25099); test: Adenosine Receptor Binding--A1 Receptor Affinity (RBA1), [3H]-CHA; design: species or system rat (male Long Evans)
T2 construct: Whole brain minus cerebellum and brainstem from male Long Evans rats; from tissue; host or cells: rat whole brain minus cerebellum and brainstem, membranes (male Long Evans)
T2 sequence (P25099 1-326): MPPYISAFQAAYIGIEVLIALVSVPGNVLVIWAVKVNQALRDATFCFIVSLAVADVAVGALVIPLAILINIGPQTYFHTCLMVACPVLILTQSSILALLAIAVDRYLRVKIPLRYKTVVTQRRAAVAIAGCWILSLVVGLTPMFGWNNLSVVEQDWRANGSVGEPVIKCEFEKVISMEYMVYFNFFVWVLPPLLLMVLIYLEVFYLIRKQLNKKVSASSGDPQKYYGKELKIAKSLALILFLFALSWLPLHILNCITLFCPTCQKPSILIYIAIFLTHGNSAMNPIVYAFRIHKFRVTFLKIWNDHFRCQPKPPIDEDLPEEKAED
Description: Adenosine Receptor Binding--A1 Receptor Affinity (RBA1)
Whole brain minus cerebellum and brainstem from male Long Evans rats (150-200 g) was homogenized in 30 volumes of ice-cold 0.05M Tris-HCl buffer pH 7.7 using a Brinkman Polytron PT-10, (setting number 6 for 20 seconds) and centrifuged for ten minutes at 20,000 xg (Sorvall RC-2), 4° C. The supernatant was discarded, and the pellet was resuspended and centrifuged as before. The pellet was resuspended in 20 ml Tris-HCl buffer containing two International Units/ml of adenosine deaminase (Sigma type III from calf intestinal mucosa), incubated at 37° C. for 30 minutes, then subsequently at 0° C. for ten minutes. […]
Tissue homogenate (10 mg/ml) was incubated in 0.05M Tris-HCl buffer pH 7.7 containing 1.0 nM [^3 H]-N^6 -cyclohexyladenosine (^3 H]-CHA) with or without test agents in triplicate for one hour at 25° C. […] The radio-labeled ligand retained on the filter was measured by liquid scintillation spectrophotometry after shaking the filters for one hour or longer on a mechanical shaker in 10 ml of Beckman Ready-Solv HP scintillation cocktail.
Nonspecific binding was defined as the binding which occurred in the presence of 1 mM theophylline. […] The Scatchard plot was calculated by linear regression of the line obtained by plotting the amount of radioligand bound [formula] […]

[1] = Mouse Activity and Screen Test Procedure (MAST): screen test failure (ST); conditions: lowest dose at which an A rating is achieved, screen test; i.p., mouse
Description: Nine unfasted Swiss-Webster male mice weighing 20-30 g are equally divided into three groups for each drug dose to be tested. That is, data for each dose level was generated by three separate groups of three mice each.
A minimum of three dose levels (10, 30, and 100 mg/kg) are tested for each drug. Treatments are administered intraperitoneally one hour prior to testing. All dosages are calculated as parent compound and given in volumes of 10 ml/kg. Compounds are dissolved or suspended in 0.2% Methocel. Control animals are injected with Methocel.
Testing: A two part testing procedure is started one hour postinjection. First, the screen test (ST) is performed (see Pharmac. Biochem. Behav. 6, 351-353, 1977). Briefly this test consists of placing mice on individual wire screens which are then rotated 180 degrees at the start of a 60 second observation period. The number of mice falling off the inverted screen is recorded.
Data: The data obtained from the screen test are expressed as percent of mice falling off the screen. Data derived from locomotor activity of drug treated mice are compared to the activity of vehicle treated animals and are expressed as percent inhibition of spontaneous locomotion. All percentages reported for inhibition of locomotion (LI) are based upon data accumulated for one hour. Both phases of testing are graded: A=60-100%; C=31-59%; and N=0-30%. An overall dose rating is obtained by the following criteria:
LAD refers to the lowest dose at which an A rating is achieved. […] The compounds are identified in the Examples.

[2] = Antihypertensive evaluation (AHP3), aortic blood pressure and heart rate in conscious rats; format: in vivo; conditions: conscious rat
Source text: […] EVALUATION (AHP3)
This test procedure is described in the following paragraphs.
A Method for the Direct Monitoring of Aortic Blood Pressure and Heart Rate from Conscious Rats
The continuous monitoring of pulsatile blood pressure (BP) from unrestrained conscious rats surgically equipped with polyethylene cannulas was accomplished by means of a computer assisted data capture scheme (CADCS). The basic elements of the methodology are the cannulation procedure and the CADCS.
Cannulation Procedure: Rats were anesthetized with Telazol (1:1 tiletamine HCl and zolazepam HCl); 20-40 mg/kg IM and the descending aorta exposed via a midline incision. Cannulas fabricated from polyethylene tubing were inserted into the aorta via an undersized puncture hole below the renal arteries. The puncture hole was made by a 23G disposable needle with a section of the aorta clamped off above and below the puncture site. The cannulas, consisting of a PE100 (0.86 mm ID) body and a PE50 (0.5mm ID) tip, were attached to a trocar, inserted through the psoas muscle, and passed subcutaneously along the midline of the back and externalized between the ears. The cannulas were anchored to the psoas muscle and between the scalulae (3-0 green braided suture). The midline incision was closed in two steps (muscle first, skin second) using continuous over-and over sutures (4-0 chronic). Each rat was then given penicillin 30,000 units subcutaneously (Penicillin G Procaine Sterile Suspension).
The rats were fitted with a harness-spring-swivel assembly designed to protect the cannula and to provide the rat relative freedom of movement. The harnesses were fabricated from nylon hook and loop tape cemented to a metal plate to which spring wires (18-8 stainless steel), were attached to brass swivels. Each polyethylene cannula was channeled through a spring and connected through a swivel to a pressure transducer (Model P23Gb; Statham Instruments; Hato Rey, Puerto Rico) and an infusion pump (Sage model 234-7; Orion Research, Cambridge, MA) by means of PE100 tubing. While on test, each rat received a continuous slow infusion of heparinized saline solution (approximately […] or 40 units of heparin per 24 hour period) to prevent clot formation. Additional "flushes" of the cannula with heparinized saline were carried out when the aortic pulse pressure (systolic minus diastolic) was less than 25 mm Hg.
CADCS: The pulsatile blood pressure and heart rate of each of 32 rats was monitored every minute by means of two in-laboratory microcomputers communicating directly with a data concentrator computer. The data were first stored on the data concentrator disk and then transferred to a magnetic tape for analysis and report generation by the main research computer. The overall scheme involved modulating the primary signal from the pressure transducer, generating the primary data set of the one-minute values for systolic, diastolic, and mean blood pressures and heart rate by the in-lab microcomputer and the storage, analysis, and report generation by the main reserach computer.
The transducers were connected to analog signal conditioning modules. The modules provided a regulated excitation voltage for the transducers, amplification as required to interface the microprocessors and an active low pass filter to compensate for the pressure wave form distortion produced by the flexible, fluid filled, narrow cannula. The distortion was 22-26 Hz and this provided a reliable estimate of both systolic and diastolic blood pressure.
The microcomputers (one for each of two groups of 16 rats) were connected to the input components through the module interface units, an analog-to-digital converter for the pressure wave form signal and the digital inputs for the dose and event marker switches. The microcomputer controlled the sequential acquisition of data from the modular interface units through an internal synchronous time-of-day clock/time base generator. […]

[3] = Mouse Activity and Screen Test Procedure (MAST): inhibition of locomotion (LI); format: in vivo, mouse (Swiss-Webster)
Description: Treatments are administered intraperitoneally one hour prior to testing. […] Compounds are dissolved or suspended in 0.2% Methocel. Control animals are injected with Methocel.
Immediately following the screen test, the final phase of testing is initiated by placing each group of three mice in one actophotometer (Life Sciences, 22, 1067-1076, 1978). The actophotometer consists of a cylindrical chamber whose center is occupied by another cylinder which contains the illumination for six photocells located on the perimeter of the chamber. Six light-beam interruptions equal one count. Locomotor activity is recorded by computer at ten minute intervals for 60 minutes.
The compounds are identified in the Examples.

Row | SMILES | pIC50 (adenosine A2 receptor) | pIC50 (adenosine A1 receptor) | MAST ST LAD [1] | HR.uparw. (change in heart rate) ([2]; 1 mg/kg) | Mμ.c..dwnarw. (change in MAP) ([2]; 1 mg/kg) | HR.uparw. (change in heart rate) ([2]; 3 mg/kg) | Mμ.c..dwnarw. (change in MAP) ([2]; 3 mg/kg) | HR.uparw. (change in heart rate) ([2]; 10 mg/kg) | Mμ.c..dwnarw. (change in MAP) ([2]; 10 mg/kg) | HR.uparw. (change in heart rate) ([2]; 30 mg/kg) | Mμ.c..dwnarw. (change in MAP) ([2]; 30 mg/kg) | Inhibition of mouse locomotor activity ([3]; 10 mg/kg i.p.) | Inhibition of mouse locomotor activity ([3]; 30 mg/kg i.p.) | Inhibition of mouse locomotor activity ([3]; 100 mg/kg i.p.)
1 | O=[N+]([O-])c1ccc(C(CNc2ncnc3c2ncn3[C@@H]2O[C@H](CO)[C@@H](O)[C@H]2O)c2ccc([N+](=O)[O-])cc2)cc1 [Example 20] | 6.25 | 6.64 | > 100 mg/kg | – | – | – | – | – | – | – | – | – | – | –
2 | OC[C@H]1O[C@@H](n2cnc3c(NCC(c4ccccc4)c4ccccc4)ncnc32)[C@H](O)[C@@H]1O [Example 1, N^6-(2,2-Diphenylethyl)adenosine] | – | – | > 100 mg/kg | < 20% | 16% | < 20% | 20% | < 20% | 20% | < 20% | 35% | 92% | 93% | 94%
